From US20040097539A1, “Hsp inductor” (priority 2001, published 2004)

Key:
HSP27 gene expression = test: HSP27-inducing activity in gastric mucosa (TaqMan PCR); type: in vivo; conditions: rats, oral 30 mg/ml, gastric mucosa 2 hr after administration
Experimental: Compound A (30 mg/ml) and vehicle were orally administered to rats. After 2 hr., stomach was excised from the rats, opened and washed with ice-cooled physiological saline. Gastric mucosa was taken from the stomach using sterilized cover glass, and immediately suspended in ISOGEN (Wako Pure Chemical Industries, Ltd.). Total RNA was prepared from the gastric mucosa according to instructions, and purified by RNAeasy Midi Kit (QIAGEN). Then cDNA was synthesized from the total RNA using TaqMan Gold RT-PCR Kit (Applied Biosystems), and subjected to TaqMan PCR using ABI7700 (Applied Biosystems), based on which the amount of HSP 27 gene expression was determined. Forward primer used was 5′-[…]-3′ (SEQ ID NO:1), Reverse primer used was 5′-[…]-3′ (SEQ ID NO:2), and TaqMan probe used was 5′-[…]-3′ (SEQ ID NO:3) labeled with FAM (6-carboxyfluorescein). Additionally, the amount of GAPDH gene expression was determined using TaqMan Rodent GAPDH Control Reagents VIC probe (Applied Biosystems) and G3PDH cDNA Control probe (CLONTECH), and the amount was employed as an internal control. The amount of HSP27 gene expression is shown by the values calibrated with an amount of internal control (i.e., GAPDH gene) expression (Table 4).

Male SD rats [1] = test: Carrageenin edema test; type: in vivo; conditions: oral, 1 hr before 1% carrageenin in footpad, foot volume after 2 hr and 3 hr
Experimental: Male SD rats (6-week-old, CLEA Japan) were used (6 rats per group). The carrageenin edema test was performed in accordance with the method of Winter et al. (Proc. Soc. Exp. Biol. Med., 111, 544-547, 1962). The volume of the footpad of the right hind limb was measured. Then, the test compound was orally administered (1.0 mL/100 g body weight), and immediately thereafter, water was orally administered to 5 mL/rat. Vehicle alone was orally administered to control group. After 1 hr., 0.05 mL of saline containing 1% carrageenin was subcutaneously injected into the footpad of the right hind limb to induce edema. After 2 hr. and 3 hr., the volume of the footpad of the right hind limb was measured. For the effects of the compound, the difference in the volume of the foot before and 2 hr. and 3 hr. after the carrageenin injection was determined, from which inhibitory rate (%) relative to the control group was calculated, and ID30 was determined.

Male ICR-mice = test: Acetic acid rising method (analgesic activity); type: in vivo; conditions: oral, 30 min before 0.6% acetic acid i.p., rising and stretching counted for 20 min
Experimental: Male ICR-mice (5 weeks old, CLEA Japan) were used (1 group, 10 mice), and a sample was orally administered (0.2 mL/10 g, b.w.). After 30 min., 0.6% acetic acid solution was injected to mice intraperitoneally (0.1 mL/10 g, b.w.), and the mice were immediately transferred into an observation cage made of a transparent acrylic resin. The number of mice rising and stretching during the following period of 20 min. was counted. The repression rate (%) was calculated by comparing the average numbers between the sample groups and the control groups and ID50 value was calculated.

human COX-2 = molecular target: T1, human COX-2 (Homo sapiens, UniProt P35354); test: COX-2 inhibiting activity (chemiluminescence, microsome fractions); type: biochemical; conditions: microsome fractions from COX-2 expressing Sf-21 cells, 37° C. 25 min preincubation, arachidonic acid
T1 construct: made in house; host or cells: Sf-21 insect cells, recombinant baculovirus BAC-COX2 (pFASTBAC1), microsome fraction
T1 sequence (P35354 18-604): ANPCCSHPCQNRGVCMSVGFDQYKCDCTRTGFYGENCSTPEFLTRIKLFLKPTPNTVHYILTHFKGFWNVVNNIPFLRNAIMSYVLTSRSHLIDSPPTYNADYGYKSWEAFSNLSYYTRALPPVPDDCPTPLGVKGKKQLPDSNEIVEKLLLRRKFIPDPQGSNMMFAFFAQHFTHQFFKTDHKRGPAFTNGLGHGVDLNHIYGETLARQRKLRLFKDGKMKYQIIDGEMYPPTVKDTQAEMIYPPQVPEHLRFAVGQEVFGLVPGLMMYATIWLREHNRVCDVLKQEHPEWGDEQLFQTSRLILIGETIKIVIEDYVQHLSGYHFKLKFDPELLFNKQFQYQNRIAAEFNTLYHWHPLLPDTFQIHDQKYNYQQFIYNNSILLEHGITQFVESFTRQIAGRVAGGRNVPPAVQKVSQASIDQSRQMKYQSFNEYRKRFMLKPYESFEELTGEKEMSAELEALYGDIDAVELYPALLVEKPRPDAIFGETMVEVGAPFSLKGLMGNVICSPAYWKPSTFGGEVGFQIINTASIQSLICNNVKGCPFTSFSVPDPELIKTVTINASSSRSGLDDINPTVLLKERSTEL
Experimental: A 1.8 kb DNA fragment containing human COX-2 cDNA (Proc. Natl. Acad. Sci. U.S.A., 89 (16), 7384-7388-(1992)) prepared by the PCR method was inserted into plasmid pFASTBAC1 (CIBCOBRAL) to obtain a plasmid pFBCOX2.
Using the plasmid pFBCOX2 and BAC-TO-BAC Baculovirus Expression System (GIBCOBRAL), a virus stock BAC-COX2 of the recombinant baculovirus was prepared.
Sf-21 cells were inoculated in 125 mL of LSf-900 II SFM medium (GIBCOBRAL) at a concentration of 1×10^6 cells/mL, and the medium was incubated at 27° C. for 24 hrs. 0.75 mL of the virus stock BAC-COX2 of the recombinant baculovirus was added, and was incubated for additional 72 hrs. The cells were separated from the medium by centrifugation (3000 rpm, 10 min.), and washed twice with PBS. The cells were suspended in 10 mL of a Lysis buffer (0.1 M Tris-HCl (pH 7.4), 5 mM EDTA), and were treated with a homogenizer (POLYTRON), three times at 20000 rpm for 20 sec. so that the cells were crushed. The supernatant thus obtained after centrifugation (2000 rpm, 10 min.) was further centrifuged (40000 rpm, 45 min.) to obtain a precipitate, which was resuspended in a Lysis buffer (0.1 M Tris-HCl (pH 7.4), 5 mM EDTA), and the suspension was stored at −80° C.
(§1) To a mixture of […] of a reaction buffer previously concentrated 10 times (1 M Tris-HCl (pH 8.0), 50 mM EDTA, 1.0% Tween 20, 50 mM luminol, 100 mM hematin), 20 mL of the microsome fractions (COX-1: 40 mg, COX-2: 20 mg), and […] of distilled water, a sample compound dissolved in DMF (5 mL) was added, and the mixture was left at 37° C. for 25 min. The reaction was started by the addition of 20 mM arachidonic acid ([…]), and chemiluminescence amount during the 10-second period after the addition of arachidonic acid was determined by the use of Lumistar (BMG Lab technologies, GmbH). The inhibition rate was calculated, regarding that the enzyme activity when DMF ([…]) was added was 100%, and the enzyme activity was 0% when 4 mM flurbiprofen (5 mL) was added.

human COX-1 = molecular target: T2, human COX-1 (Homo sapiens, UniProt P23219); test: COX-1 inhibiting activity (chemiluminescence, microsome fractions); type: biochemical; conditions: microsome fractions from COX-1 expressing Sf-21 cells, 37° C. 25 min preincubation, arachidonic acid
T2 construct: made in house; host or cells: Sf-21 insect cells, recombinant baculovirus BAC-COX1 (pFASTBAC1), microsome fraction
T2 sequence (P23219 24-599): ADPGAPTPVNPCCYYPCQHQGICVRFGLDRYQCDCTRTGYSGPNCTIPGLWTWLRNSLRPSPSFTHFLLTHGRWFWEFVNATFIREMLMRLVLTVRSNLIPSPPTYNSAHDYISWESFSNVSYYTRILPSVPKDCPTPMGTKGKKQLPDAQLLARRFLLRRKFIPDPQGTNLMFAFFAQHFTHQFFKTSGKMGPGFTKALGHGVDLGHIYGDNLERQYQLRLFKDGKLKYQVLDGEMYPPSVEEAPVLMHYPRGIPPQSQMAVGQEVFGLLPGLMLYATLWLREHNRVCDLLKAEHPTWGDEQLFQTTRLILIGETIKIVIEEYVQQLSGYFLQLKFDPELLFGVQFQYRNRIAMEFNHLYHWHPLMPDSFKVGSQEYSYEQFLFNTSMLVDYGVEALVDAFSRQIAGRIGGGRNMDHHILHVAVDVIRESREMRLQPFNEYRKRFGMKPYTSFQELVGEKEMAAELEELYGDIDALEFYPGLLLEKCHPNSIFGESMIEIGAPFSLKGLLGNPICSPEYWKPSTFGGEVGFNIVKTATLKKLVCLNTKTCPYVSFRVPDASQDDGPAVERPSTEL
Experimental: A 1.8 kb DNA fragment containing human COX-1 cDNA (FASEB J., 5 (9), 2304-2312 (1991)) prepared by the PCR method was inserted into plasmid pFASTBAC1 (CIBCOBRL) to obtain a plasmid pFBCOX1.
Using the plasmid pFBCOX1 and BAC-TO-BAC Baculovirus Expression System (GIBCOBRL), a virus stock BAC-COX1 of the recombinant baculovirus was prepared.
Sf-21 cells were inoculated in 125 mL of Sf-900 II SFM medium (GIBCOBRL) at a concentration of 1×10^6 cells/mL, and the medium was incubated at 27° C. for 24 hrs. 0.75 mL of the virus stock BAC-COX1 of the recombinant baculovirus was added, and the mixture was incubated for additional 72 hrs. The cells were separated from the medium by centrifugation (3000 rpm, 10 min.), and washed with PBS twice. The cells were suspended in 10 mL of a lysis buffer (0.1 M Tris-HCl (pH 7.4), 5 mM EDTA), and were treated with a homogenizer (POLYTRON) three times at 20000 rpm for 20 seconds so that the cells were crushed. The supernatant obtained after centrifugation (2000 rpm, 10 min.) was further centrifuged (40000 rpm, 45 min.) to give a precipitate, which was resuspended in a Lysis buffer (0.1 M Tris-HCl (pH 7.4), 5 mM EDTA), and the suspension was stored at −80° C.
as §1

Male SD rats [2] = test: Test for gastric mucosa disorder; type: in vivo; conditions: oral 300 mg/kg, stomach examined after 24 hr
Experimental: Male SD rats (6 rats, 7 weeks old, CLEA Japan) were used. The test compound was orally administered (5 mL/kg, b.w.) to the rats after 24 hr-fasting or without fasting. After 23.5 hrs., the rats were intravenously injected with Evan's Blue (0.5% Evan's Blue/saline, 1 mL/rat) without anesthesia. After 30 min., the rats were laparotomized and stomach was excised. Esophagus was clipped. A 1% formalin solution (8 mL) was infused to the esophagus, and duodenum was clipped. The stomach was immersed in a 1% formalin solution for 10 min. or more, and sectioned along the line from duodenum to greater curvature of the stomach. After washing the stomach, the total length (mm^2) of the site (hemorrhage site: detachment of mucosa-ulcer) stained with Evan's Blue was measured with a counter under a stereomicroscope and recorded.

Row | Compound | HSP27/GAPDH (x10^4) (HSP27 gene expression; calibrated with GAPDH expression) | HSP27/GAPDH (% of control) (HSP27 gene expression; relative to vehicle) | ID30 (Male SD rats [1]) [mg/kg] | ID50 (Male ICR-mice) [mg/kg] | IC50 (human COX-2) [nM] | IC50 (human COX-1) [nM] | Area of lesion (mm^2) (average), Administration after 24 hr-fasting (Male SD rats [2]; after 24 hr-fasting) | Area of lesion (mm^2) (average), Administration without fasting (Male SD rats [2]; without fasting)
1 | Cc1nn(-c2ccccn2)c2[nH]c3ccc(C(F)(F)F)cc3c(=O)c12 [Compound A, 3-Methyl-1-(2-pyridinyl)-6-(trifluoromethyl)-1,9-dihydro-4H-pyrazolo[3,4-b]quinolin-4-one] | 197 ± 20 | (277) % of control | 2.2 | 0.9 | 380 | 450 | 0.2 | 0
2 | Cc1nn(-c2ccccn2)c2[nH]c3cc(F)c(F)cc3c(=O)c12 [Compound B, 6,7-Difluoro-3-methyl-1-(2-pyridinyl)-1,9-dihydro-4H-pyrazolo[3,4-b]quinolin-4-one] |  |  |  |  | 295 | 527 |  | 
3 | Cc1nn(-c2ccccn2)c2[nH]c3cc(F)c(Cl)cc3c(=O)c12 [Compound C, 6-Chloro-7-fluoro-3-methyl-1-(2-pyridinyl)-1,9-dihydro-4H-pyrazolo[3,4-b]quinolin-4-one] |  |  |  |  | 213 | 263 |  | 
4 | O=c1c2cc(Cl)ccc2[nH]c2c1cnn2-c1ccccn1 [Compound D, 6-Chloro-1-(2-pyridinyl)-1,9-dihydro-4H-pyrazolo[3,4-b]quinolin-4-one] |  |  |  |  | 360 | 600 |  | 
